Data reported in article PMC8815882, “Screening the pandemic response box identified benzimidazole carbamates, Olorofim and ravuconazole as promising drug candidates for the treatment of eumycetoma” (PLoS Neglected Tropical Diseases, 2022).
Where two headings read alike, the source gives them in different places.

Tested on: M. mycetomatis genome strain MM55
Assay: CLSI M38-A2 based in vitro susceptibility screening (XTT or resazurin), growth at fixed concentration
Assay type: cell-based, Madurella mycetomatis
Settings: Madurella mycetomatis; for Percent fungal survival at 100 µM: replicate 2, M. mycetomatis MM55, read-out: Percentage survival at 100um, 100 uM A (second replicate column)
[1] = 25 uM, mean of replicates, read-out: Percentage survival at 25um, 25 uM mean
[2] = 25 uM, replicate A, read-out: Percentage survival at 25um, 25 um A
[3] = 25 uM, replicate B, read-out: Percentage survival at 25um, 25 uM B
[4] = 25 uM, replicate C, read-out: Percentage survival at 25um, 25 uM C
[5] = mean of replicates, read-out: Percentage survival at 100um, 100 uM mean
[6] = replicate 1, read-out: Percentage survival at 100um, 100 uM A
[7] = replicate 2, read-out: Percentage survival at 100um, 100 uM A
[8] = replicate 3, read-out: Percentage survival at 100um, 100 uM A
[9] = 25 uM, mean, read-out: Percentage survival at 25um, 25 uM mean
[10] = mean, read-out: Percentage survival at 100um, 100 uM mean
[11] = replicate (first column), read-out: Percentage survival at 100um, 100 uM A
[12] = replicate (second column), read-out: Percentage survival at 100um, 100 uM A
[13] = replicate (third column), read-out: Percentage survival at 100um, 100 uM A
[14] = 25 uM, mean of three, M. mycetomatis MM55, read-out: Percentage survival at 25um, 25 uM mean
[15] = 25 uM, replicate A, M. mycetomatis MM55, read-out: Percentage survival at 25um, 25 um A
[16] = 25 uM, replicate B, M. mycetomatis MM55, read-out: Percentage survival at 25um, 25 uM B
[17] = 25 uM, replicate C, M. mycetomatis MM55, read-out: Percentage survival at 25um, 25 uM C
[18] = mean of three, M. mycetomatis MM55, read-out: Percentage survival at 100um, 100 uM mean
[19] = replicate 1, M. mycetomatis MM55, read-out: Percentage survival at 100um, 100 uM A (first replicate column)
[20] = replicate 3, M. mycetomatis MM55, read-out: Percentage survival at 100um, 100 uM A (third replicate column)

With `CC(C)Nc1nc2cc(Cl)c(Cl)cc2n1[C@H]1O[C@@H](CO)[C@H](O)[C@@H]1O` [MMV1593521] the activity at 25 µM (25 uM, mean of replicates, MM55, read-out: Percentage survival at 25um, 25 uM mean) was 93.6%, the activity at 25 µM (25 uM, replicate A, MM55, read-out: Percentage survival at 25um, 25 um A) was 104% and the activity at 25 µM (25 uM, replicate B, MM55, read-out: Percentage survival at 25um, 25 uM B) was 89.6%. It also gave an activity at 25 µM (25 uM, replicate C, MM55, read-out: Percentage survival at 25um, 25 uM C) of 87%, an activity at 100 µM (mean of replicates, MM55, read-out: Percentage survival at 100um, 100 uM mean) of 81.8% and an activity at 100 µM (replicate 1, MM55, read-out: Percentage survival at 100um, 100 uM A) of 90.8%. For the same compound, the activity at 100 µM (replicate 2, MM55, read-out: Percentage survival at 100um, 100 uM A) was 82% and the activity at 100 µM (replicate 3, MM55, read-out: Percentage survival at 100um, 100 uM A) was 72.5%.

Compound `O=C(Nc1ccc(-c2ccccc2)cc1)C1=C(O)C(Cc2ccccc2)OC1=O` (centres unmarked) [MMV1593531] has an activity at 25 µM [1] of 72.9%, an activity at 25 µM [2] of 71.9% and an activity at 25 µM [3] of 72%. It also gave an activity at 25 µM [4] of 74.7%, an activity at 100 µM [5] of 74.5% and an activity at 100 µM [6] of 74.2%. It also gave an activity at 100 µM [7] of 70.8% and an activity at 100 µM [8] of 78.4%.

In the case of `O=C(Nc1ncc(Cc2cccc3ccccc23)s1)C1CCCCC1` [MMV1593532], the activity at 25 µM [1] was 92.1%, the activity at 25 µM [2] was 93.7% and the activity at 25 µM [3] was 94.5%. The activity at 25 µM [4] was 88%, the activity at 100 µM [5] was 93.9% and the activity at 100 µM [6] was 107%. The activity at 100 µM [7] was 89% and the activity at 100 µM [8] was 85.1%.

With `C[C@H]1[C@@H](c2cccc(C(F)(F)F)c2)OC(=O)N1C(=O)NCc1cncc2ccccc12` [MMV1593533] the activity at 25 µM [9] was 50%, the activity at 25 µM [2] was 54.1% and the activity at 25 µM [3] was 42.5%. For the same compound, the activity at 25 µM [4] was 53.3%, the activity at 100 µM [10] was 36.1% and the activity at 100 µM [11] was 6.17%. For the same compound, the activity at 100 µM [12] was 44.6% and the activity at 100 µM [13] was 57.6%.

`CCNC(=O)Nc1cc(-c2ccccc2)c(-c2cncc(C(=O)O)c2)cn1` [MMV1593534] showed an activity at 25 µM [9] of 85.6%, an activity at 25 µM [2] of 94.2% and an activity at 25 µM [3] of 90.1%. The activity at 25 µM [4] was 72.5%, the activity at 100 µM [10] was 53.4% and the activity at 100 µM [11] was 4.59%. It also gave an activity at 100 µM [12] of 76.9% and an activity at 100 µM [13] of 78.8%.

Compound `CCCCCCC1c2ccc(O)cc2Oc2cc(O)ccc21` [MMV1593535] has an activity at 25 µM [9] of 72.3%, an activity at 25 µM [2] of 72.8% and an activity at 25 µM [3] of 89.7%. The activity at 25 µM [4] was 54.6%, the activity at 100 µM [10] was 21.5% and the activity at 100 µM [11] was 10.9%. The activity at 100 µM [12] was 14.4% and the activity at 100 µM [13] was 39.1%.

With `Fc1ccc(-c2nc(-c3c[nH]c4ccc(Br)cc34)[nH]c2-c2ccc(F)cc2)cc1` [MMV1593537] the activity at 25 µM [14] was 61.4%, the activity at 25 µM [15] was 38% and the activity at 25 µM [16] was 20.2%. The activity at 25 µM [17] was 126%, the activity at 100 µM [18] was 3.84% and the activity at 100 µM [19] was 4.18%. For the same compound, the Percent fungal survival at 100 µM was 1.82% and the activity at 100 µM [20] was 5.52%.

`NC1(C(=O)O)CCP(=O)(O)CC1` (centres unmarked) [MMV1593538] was tested, and the activity at 25 µM [2] was 56.1%, the activity at 100 µM [5] was 65.8% and the activity at 100 µM [6] was 72.6%. For the same compound, the activity at 100 µM [7] was 66.4%, the activity at 100 µM [8] was 58.5% and the activity at 25 µM (read-out: Percentage survival at 25um, 25 uM B) was 68.9%. For the same compound, the activity at 25 µM (read-out: Percentage survival at 25um, 25 uM C) was 67% and the activity at 25 µM (read-out: Percentage survival at 25um, 25 uM mean) was 64%.

`COc1ccc2cc3[n+](cc2c1OCCN(CCn1cncn1)Cc1ccc(F)cc1F)CCc1cc2c(cc1-3)OCO2` [MMV1593540] showed an activity at 25 µM [14] of 87.6%, an activity at 25 µM [15] of 96.5% and an activity at 25 µM [16] of 90.9%. For the same compound, the activity at 25 µM [17] was 75.5%, the activity at 100 µM [18] was 84.2% and the activity at 100 µM [19] was 80.5%. For the same compound, the Percent fungal survival at 100 µM was 83.8% and the activity at 100 µM [20] was 88.4%.

With `Nc1nc(Nc2ccc3nc(-c4ccc(F)cc4)cc(N)c3c2)cc(-c2ccccc2)n1` [MMV1593541] the activity at 25 µM [14] was 65.8%, the activity at 25 µM [15] was 82.5% and the activity at 25 µM [16] was 80.3%. It also gave an activity at 25 µM [17] of 34.5%, an activity at 100 µM [18] of 2.33% and an activity at 100 µM [19] of 5.55%. It also gave a Percent fungal survival at 100 µM of 5.6% and an activity at 100 µM [20] of -4.16%.
